Data taken from patent publication US8575091B1, “Amylin analogues and pharmaceutical compositions thereof” (Novo Nordisk A/S, priority 2012, dated 2013).
Where two headings read alike, the source gives them in different places. Numbered stars: 1 amine (or outer) side, 2 acyl side, 3 side chain; on linkers, the order of the positions; unused ones are H or OH. Bridge positions count the residues as written; N and C are the ends. Peptide text beside a SMILES is read from it. * marks the point of attachment. C20 diacid = O=C(O)CCCCCCCCCCCCCCCCCCC(=O)*; γGlu = O=C(O)[C@H](CCC(=O)[*:2])N[*:1]

How the values were obtained:
[1] = biological target: T1, human calcitonin receptor (Homo sapiens, UniProt P30988); assay: Assay (II)a functional assay, human calcitonin receptor (CRE luciferase, BHK cells);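 further: luminescence from a CRE-driven luciferase reporter, read by single photon counting after cells were exposed to test samples for 3 h at 37 °C under 5% CO2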; assay type: cell-based; conditions: read-out: hCTR funct. EC50
T1 construct: expressed in transfected cells
T1 sequence (P30988 25-474): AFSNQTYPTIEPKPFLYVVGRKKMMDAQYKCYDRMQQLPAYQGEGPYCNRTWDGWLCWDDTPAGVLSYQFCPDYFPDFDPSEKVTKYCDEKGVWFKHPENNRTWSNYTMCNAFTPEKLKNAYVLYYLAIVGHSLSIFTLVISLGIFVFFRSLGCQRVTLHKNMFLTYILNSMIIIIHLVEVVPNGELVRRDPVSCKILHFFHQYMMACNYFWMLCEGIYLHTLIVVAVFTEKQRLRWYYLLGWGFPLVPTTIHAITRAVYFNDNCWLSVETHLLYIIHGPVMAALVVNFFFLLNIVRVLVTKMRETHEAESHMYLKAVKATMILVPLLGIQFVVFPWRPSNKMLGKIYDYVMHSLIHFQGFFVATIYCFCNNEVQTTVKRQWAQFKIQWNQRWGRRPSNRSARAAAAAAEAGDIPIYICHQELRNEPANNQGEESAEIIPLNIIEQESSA

[2] = biological target: T2, human amylin receptor (amylin 3(a) receptor: human calcitonin receptor + RAMP-3) (Homo sapiens, UniProt O60896+P30988); assay: Assay (II)a functional assay, human amylin receptor (CRE luciferase, BHK cells); assay type: cell-based; conditions: for EC50: read-out: hAmylin-R funct. EC50
T2 construct: expressed in transfected cells
T2 sequence (P30988 25-474): T1 sequence (P30988 25-474)
T2 sequence (O60896 24-148 partner): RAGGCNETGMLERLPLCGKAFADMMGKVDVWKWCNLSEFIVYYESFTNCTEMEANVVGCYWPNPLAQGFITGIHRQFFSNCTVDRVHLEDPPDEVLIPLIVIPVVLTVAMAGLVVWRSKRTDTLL

human amylin receptor = biological target: T3, human amylin receptor (Homo sapiens, UniProt O60896+P30988); assay: Assay (V) binding to the human amylin receptor (SPA, 125I-rat amylin); conditions: for IC50: human amylin receptor membranes, SPA, read-out: hAmylin-R bind IC50
T3 construct: expressed in transfected cells
T3 sequence (P30988 25-474): T1 sequence (P30988 25-474)
T3 sequence (O60896 24-148 partner): T2 sequence (O60896 24-148 partner)
Method in brief: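 SPA competition binding on membranes from Amylin 3(a)/CRE-luc cells, 35 ng/μL membranes with 0.05 mg/well beads. Buffer 50 mM Hepes pH 7.4, 1 mM CaCl2, 5 mM MgCl2, 0.1% OA, 0.02% Tween20. IC50 from one-site competition fit as affinity measure.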

[3] = biological target: T1, human calcitonin receptor; assay: Assay (VII) binding to the human calcitonin receptor (SPA, 125I-Calcitonin); conditions: read-out: hCTR bind IC50;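 further: cell membranes coupled to SPA beads, competitive displacement read by scintillation counting, IC50 derived from a one-site competition fit as a measure of receptor affinity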
[4] = functional assay, human amylin receptor
[5] = Table 6, human functional selectivity (hCTR EC50 / hAmylin-R EC50)
[6] = Table 6a, human functional selectivity (hCTR EC50 / hAmylin-R EC50), at least 5
[7] = Table 6j, hCTR funct. EC50 / hAmylin-R funct. EC50
[8] = Table 6k, hCTR funct. EC50 / hAmylin-R funct. EC50

Structure (SMILES) | EC50 [1] [pM] | EC50 [2, 4] [pM] | IC50 (human amylin receptor) [pM] | IC50 [3] [pM] | Ratio hCT/hAmylin funct. [2, 5] | Ratio hCT/hAmylin funct. [2, 6] | Ratio hCT/hAmylin funct. [2, 7] | Ratio hCT/hAmylin funct. [2, 8] | Ratio hCT/hAmylin funct. ([2]; Table 6i, hCTR funct. EC50 / hAmylin-R funct. EC50) | EC50 ([2]; Table 6i, human amylin receptor functional) [pM] | Ratio hCT/hAmylin binding (human amylin receptor; Table 7b, human calcitonin receptor binding IC50 divided by human amylin receptor binding IC50) | Ratio hCT/hAmylin binding (human amylin receptor; human binding ratio, included for comparison)
CC[C@H](C)[C@H](NC(=O)[C@H](C)NC(=O)CNC(=O)[C@H](Cc1ccccc1)NC(=O)[C@H](CC(N)=O)NC(=O)[C@@H]1CCCN1C(=O)[C@H](CO)NC(=O)[C@H](CO)NC(=O)[C@H](Cc1c[nH]cn1)NC(=O)[C@H](CCCNC(=N)N)NC(=O)[C@H](CC(C)C)NC(=O)[C@H](Cc1ccccc1)NC(=O)[C@H](Cc1c[nH]cn1)NC(=O)[C@H](C)NC(=O)[C@H](CC(C)C)NC(=O)[C@H](CCCNC(=N)N)NC(=O)[C@H](CCC(N)=O)NC(=O)[C@@H](NC(=O)[C@H](C)NC(=O)[C@@H]1CSSC[C@H](NC(=O)[C@H](CCCNC(=N)N)NC(=O)CNC(=O)CC[C@H](NC(=O)CCCCCCCCCCCCCCCCCCC(=O)O)C(=O)O)C(=O)N[C@@H](CC(N)=O)C(=O)N[C@@H]([C@@H](C)O)C(=O)N[C@@H](C)C(=O)N[C@@H]([C@@H](C)O)C(=O)N1)[C@@H](C)O)C(=O)N1CCC[C@H]1C(=O)N[C@@H](CO)C(=O)N[C@@H](CO)C(=O)N[C@H](C(=O)N[C@@H](CC(N)=O)C(=O)N[C@H](C(=O)NCC(=O)N[C@@H](CO)C(=O)N[C@@H](CC(N)=O)C(=O)N[C@H](C(=O)N[C@@H](Cc1ccc(O)cc1)C(N)=O)[C@@H](C)O)C(C)C)[C@@H](C)O [Example 99] ({C20 diacid-γGlu}-GRCNTATCATQRLAHFLRHSSPNFGAIPSSTNVGSNTY-NH2; disulfide 3-8) | 818 | 82 | 348 | 35000 | 10.0 | 10.0 | 10.0 | 10.0 |  |  |  | 
CC[C@H](C)[C@H](NC(=O)[C@H](C)NC(=O)CNC(=O)[C@H](Cc1ccccc1)NC(=O)[C@H](CC(N)=O)NC(=O)[C@@H]1CCCN1C(=O)[C@H](CO)NC(=O)[C@H](CO)NC(=O)[C@H](Cc1c[nH]cn1)NC(=O)[C@H](CCCNC(=N)N)NC(=O)[C@H](CC(C)C)NC(=O)[C@H](Cc1ccccc1)NC(=O)[C@H](CCC(=O)O)NC(=O)[C@H](C)NC(=O)[C@H](CC(C)C)NC(=O)[C@H](CCCNC(=N)N)NC(=O)[C@H](CCC(N)=O)NC(=O)[C@@H](NC(=O)[C@H](C)NC(=O)[C@@H]1CSSC[C@H](NC(=O)[C@H](CCCCN)NC(=O)CC[C@H](NC(=O)CCCCCCCCCCCCCCCCCCC(=O)O)C(=O)O)C(=O)N[C@@H](CC(N)=O)C(=O)N[C@@H]([C@@H](C)O)C(=O)N[C@@H](C)C(=O)N[C@@H]([C@@H](C)O)C(=O)N1)[C@@H](C)O)C(=O)N1CCC[C@H]1C(=O)N[C@@H](CO)C(=O)N[C@@H](CO)C(=O)N[C@H](C(=O)N1CCC[C@H]1C(=O)N[C@H](C(=O)NCC(=O)N[C@@H](CO)C(=O)N[C@@H](CC(N)=O)C(=O)N[C@H](C(=O)N[C@@H](Cc1ccc(O)cc1)C(N)=O)[C@@H](C)O)C(C)C)[C@@H](C)O [Example 31] ({C20 diacid-γGlu}-KCNTATCATQRLAEFLRHSSPNFGAIPSSTPVGSNTY-NH2; disulfide 2-7) | 717 |  | 204 | 3260 | 6.4 | 6.4 | 6.4 | 6.4 | 6.4 | 112 | 16.0 | 16.0
CC[C@H](C)[C@H](NC(=O)[C@H](C)NC(=O)CNC(=O)[C@H](Cc1ccccc1)NC(=O)[C@H](CC(N)=O)NC(=O)[C@@H]1CCCN1C(=O)[C@H](CO)NC(=O)[C@H](CO)NC(=O)[C@H](Cc1c[nH]cn1)NC(=O)[C@H](CCCNC(=N)N)NC(=O)[C@H](CC(C)C)NC(=O)[C@H](Cc1ccccc1)NC(=O)[C@H](Cc1c[nH]cn1)NC(=O)[C@H](C)NC(=O)[C@H](CC(C)C)NC(=O)[C@H](CCCNC(=N)N)NC(=O)[C@H](CCC(N)=O)NC(=O)[C@@H](NC(=O)[C@H](C)NC(=O)[C@@H]1CSSC[C@H](NC(=O)[C@@H](N)CCCCNC(=O)CC[C@H](NC(=O)CC[C@H](NC(=O)CCCCCCCCCCCCCCCCCCC(=O)O)C(=O)O)C(=O)O)C(=O)N[C@@H](CC(N)=O)C(=O)N[C@@H]([C@@H](C)O)C(=O)N[C@@H](C)C(=O)N[C@@H]([C@@H](C)O)C(=O)N1)[C@@H](C)O)C(=O)N1CCC[C@H]1C(=O)N[C@@H](CO)C(=O)N[C@@H](CO)C(=O)N[C@H](C(=O)N[C@@H](CC(N)=O)C(=O)N[C@H](C(=O)NCC(=O)N[C@@H](CO)C(=O)N[C@@H](CC(N)=O)C(=O)N[C@H](C(=O)N[C@@H](Cc1ccc(O)cc1)C(N)=O)[C@@H](C)O)C(C)C)[C@@H](C)O [Example 92] | 2380 | 85 | 179 | 26000 | 28.0 | 28.0 | 28.0 | 28.0 |  |  |  | 

Other lines, results leading:

EC50 [1] [pM] | EC50 [2, 4] [pM] | IC50 (human amylin receptor) [pM] | IC50 [3] [pM] | Ratio hCT/hAmylin funct. [2, 5] | Ratio hCT/hAmylin funct. [2, 6] | Ratio hCT/hAmylin funct. [2, 7] | Ratio hCT/hAmylin funct. [2, 8] | Ratio hCT/hAmylin funct. ([2]; Table 6i, hCTR funct. EC50 / hAmylin-R funct. EC50) | EC50 ([2]; Table 6i, human amylin receptor functional) [pM] | Ratio hCT/hAmylin binding (human amylin receptor; Table 7b, human calcitonin receptor binding IC50 divided by human amylin receptor binding IC50) | Ratio hCT/hAmylin binding (human amylin receptor; human binding ratio, included for comparison) | Structure (SMILES)
1630 | 84 | 91 | 6740 |  |  |  |  |  |  |  |  | CC[C@H](C)[C@H](NC(=O)[C@H](C)NC(=O)CNC(=O)[C@H](Cc1ccccc1)NC(=O)[C@H](CC(N)=O)NC(=O)[C@@H]1CCCN1C(=O)[C@H](CO)NC(=O)[C@H](CO)NC(=O)[C@H](Cc1c[nH]cn1)NC(=O)[C@H](CCCNC(=N)N)NC(=O)[C@H](CC(C)C)NC(=O)[C@H](Cc1ccccc1)NC(=O)[C@H](CC(N)=O)NC(=O)[C@H](C)NC(=O)[C@H](CC(C)C)NC(=O)[C@H](CCCNC(=N)N)NC(=O)[C@H](CCC(N)=O)NC(=O)[C@@H](NC(=O)[C@H](C)NC(=O)[C@@H]1CSSC[C@H](NC(=O)[C@@H](N)CCCCNC(=O)COCCOCCNC(=O)COCCOCCNC(=O)CC[C@H](NC(=O)CCCCCCCCCCCCCCCCCCC(=O)O)C(=O)O)C(=O)N[C@@H](CC(N)=O)C(=O)N[C@@H]([C@@H](C)O)C(=O)N[C@@H](C)C(=O)N[C@@H]([C@@H](C)O)C(=O)N1)[C@@H](C)O)C(=O)N1CCC[C@H]1C(=O)N[C@@H](CO)C(=O)N[C@@H](CO)C(=O)N[C@H](C(=O)N[C@@H](CC(N)=O)C(=O)N[C@H](C(=O)NCC(=O)N1CCC[C@H]1C(=O)N[C@@H](CC(N)=O)C(=O)N[C@H](C(=O)N[C@@H](Cc1ccc(O)cc1)C(N)=O)[C@@H](C)O)C(C)C)[C@@H](C)O [Example 98]
2390 | 106 | 1190 | 12900 |  |  |  |  |  |  |  |  | CC[C@H](C)[C@H](NC(=O)[C@H](C)NC(=O)CNC(=O)[C@H](Cc1ccccc1)NC(=O)[C@H](CC(N)=O)NC(=O)[C@@H]1CCCN1C(=O)[C@H](CO)NC(=O)[C@H](CO)NC(=O)[C@H](Cc1c[nH]cn1)NC(=O)[C@H](CCCNC(=N)N)NC(=O)[C@H](CC(C)C)NC(=O)[C@H](Cc1ccccc1)NC(=O)[C@H](CC(N)=O)NC(=O)[C@H](C)NC(=O)[C@H](CC(C)C)NC(=O)[C@H](CCCNC(=N)N)NC(=O)[C@H](CCC(N)=O)NC(=O)[C@@H](NC(=O)[C@H](C)NC(=O)[C@@H]1CSSC[C@H](NC(=O)[C@@H](N)CCCCNC(=O)COCCOCCNC(=O)CC[C@H](NC(=O)CCCCCCCCCCCCCCCCCCC(=O)O)C(=O)O)C(=O)N[C@@H](CC(N)=O)C(=O)N[C@@H]([C@@H](C)O)C(=O)N[C@@H](C)C(=O)N[C@@H]([C@@H](C)O)C(=O)N1)[C@@H](C)O)C(=O)N1CCC[C@H]1C(=O)N[C@@H](CO)C(=O)N[C@@H](CO)C(=O)N[C@H](C(=O)N1CCC[C@H]1C(=O)N[C@H](C(=O)NCC(=O)N[C@@H](CO)C(=O)N[C@@H](CC(N)=O)C(=O)N[C@H](C(=O)N[C@@H](Cc1ccc(O)cc1)C(N)=O)[C@@H](C)O)C(C)C)[C@@H](C)O [Example 49]
